The source of these data is US5688774A (priority 1995, dated 1997).

Molecules are shown by their SMILES. Like-named read-outs stand apart in the source and are kept apart here.

Experiment [1] deals with T1, rat A3 adenosine receptors (Rattus norvegicus, UniProt P28647).
T1 construct: expressed in transfected cells; host or cells: CHO cells, stably transfected
T1 sequence (P28647 1-320): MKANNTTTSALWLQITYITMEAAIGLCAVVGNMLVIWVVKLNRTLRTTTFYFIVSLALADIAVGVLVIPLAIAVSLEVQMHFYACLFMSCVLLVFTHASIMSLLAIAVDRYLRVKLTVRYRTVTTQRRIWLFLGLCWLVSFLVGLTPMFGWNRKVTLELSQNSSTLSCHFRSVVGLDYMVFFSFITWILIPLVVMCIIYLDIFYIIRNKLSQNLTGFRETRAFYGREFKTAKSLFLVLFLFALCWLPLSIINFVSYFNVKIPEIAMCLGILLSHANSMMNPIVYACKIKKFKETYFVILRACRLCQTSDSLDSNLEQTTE
Kind of experiment: Inhibition of adenylate cyclase in CHO cells stably transfected with rat A3 adenosine receptors. Type of experiment: cell-based. More on the design: key to Effect on IB-MECA dose-resp. curve: no effect. As to conditions: for Ratio Conc./Ki (A3): test concentration divided by Ki (A3).

The target of the next experiment is T2, rat brain A1 receptor (Rattus norvegicus, UniProt P25099).
T2 construct: Rat cerebral cortical and striatal membranes were prepared; from tissue; host or cells: rat brain membranes (cerebral cortical)
T2 sequence (P25099 1-326): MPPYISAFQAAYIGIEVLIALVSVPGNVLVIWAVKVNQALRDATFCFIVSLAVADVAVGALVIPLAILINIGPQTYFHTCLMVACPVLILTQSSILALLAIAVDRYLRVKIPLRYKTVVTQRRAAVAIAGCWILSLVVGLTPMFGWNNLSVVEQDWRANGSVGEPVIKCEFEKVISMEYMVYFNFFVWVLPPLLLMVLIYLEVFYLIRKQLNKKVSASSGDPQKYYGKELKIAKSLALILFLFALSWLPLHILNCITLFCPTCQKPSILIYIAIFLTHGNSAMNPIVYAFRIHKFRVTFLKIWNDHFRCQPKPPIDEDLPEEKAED
Nature of the experiment: Displacement of [^3 H]PIA binding at A1 receptors.

For another experiment, the target named is T3, rat brain A2a receptor (Rattus norvegicus, UniProt P30543).
T3 construct: A2 receptors from rat striatal membranes; from tissue; host or cells: rat striatal membranes
Nature of the experiment: Displacement of [^3 H]CGS 21680 binding at A2a receptors. The method, then:
Rat cerebral cortical and striatal membranes were prepared (Jacobson et al., J. Med. Chem., 35, 4143-4149 (1992)) and treated with ADA for 30 min at 37° C. prior to storage at -70° C.
The stock solutions were diluted with DMSO to a concentration of ≤0.1 mM prior to addition to the aqueous medium. The final concentration of DMSO in the assay medium was generally 2%.
At least six different concentrations spanning three orders of magnitude, adjusted appropriately for the IC50 of each compound, were used. […]. Pharmacol., 22, 3099-3108 (1973)).

The mark [2] stands for this setting: [^3 H]PIA, rat brain membranes, Ki ± S.E.M., n = 3-6.
The mark [3] stands for this setting: CHO, 1 μM forskolin, average ± S.E.M. for 2-3 determinations or a single value, read-out: % Inhib. (adenylate cyclase).
Where [4] appears, read: [^3 H]CGS 21680, rat brain membranes, Ki ± S.E.M., n = 3-6.

T3 sequence (P30543 whole entry): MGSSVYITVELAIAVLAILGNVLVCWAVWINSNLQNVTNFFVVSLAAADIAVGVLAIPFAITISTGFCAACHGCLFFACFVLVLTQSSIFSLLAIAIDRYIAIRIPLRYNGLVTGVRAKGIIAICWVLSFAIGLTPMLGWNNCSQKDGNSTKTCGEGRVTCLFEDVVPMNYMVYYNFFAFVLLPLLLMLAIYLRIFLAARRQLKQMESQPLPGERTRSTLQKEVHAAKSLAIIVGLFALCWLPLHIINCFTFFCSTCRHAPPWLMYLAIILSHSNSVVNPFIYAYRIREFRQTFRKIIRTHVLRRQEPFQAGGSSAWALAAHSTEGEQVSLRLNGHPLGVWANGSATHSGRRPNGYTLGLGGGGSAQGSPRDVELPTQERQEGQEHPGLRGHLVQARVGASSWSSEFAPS

Take `CNC(=O)[C@H]1O[C@@H](n2cnc3c(NCc4cccc(I)c4)nc(Cl)nc32)[C@H](O)[C@@H]1O` [2-chloro-N^6-(3-iodobenzyl)-adenosine-5'-N-methyluronamide, reference compound]: the “agonist efficacy in inhibition of adenylate cyclase” value in experiment [1] (in words, via rat A3 receptors) was “full agonist”. For the same compound, the “agonist potency in inhibition of adenylate cyclase” value in experiment [1] (in words, vs. other agonists) is recorded as “greater than that of other agonists”.

One may read the Ki as the equilibrium dissociation constant of an inhibitor or competing ligand from its target. `CSc1nc(NCc2cccc(I)c2)c2ncn(C)c2n1` [Compound 16, N^6-(3-Iodobenzyl)-9-Methyl-2-Methylthioadenine]: the Ki came to 1890 ± 590 nM at rat brain A1 receptor (setting [2]) and 1.64 ± 0.39 µM at rat brain A2a receptor (setting [4]). In addition, in experiment [1] (1 μM forskolin), the “Effect on IB-MECA dose-resp. curve” value is “c”. In addition, in experiment [1] (setting [3]), the inhibition at 100 µM came to 19.5%. Further, the “Ratio Conc./Ki (A3)” value in experiment [1] is on record as 330.

As for `CSc1nc(NCc2cccc(I)c2)c2ncn(C[C@@H](O)CO)c2n1` [Compound 19b, R-N^6-(3-Iodobenzyl)-9-(2,3-dihydroxypropyl)-2-methylthioadenine], in experiment [1] (1 μM forskolin), the “Effect on IB-MECA dose-resp. curve” value was “c”. Moreover, the inhibition at 40 µM in experiment [1] (setting [3]) is 7.4 ± 3.7%. Besides, in experiment [1], the “Ratio Conc./Ki (A3)” value amounted to 4.6.

As for `O[C@@H]1[C@H](O)CO[C@H]1n1cnc2c(NCc3cccc(I)c3)nc(Cl)nc21` [Compound 28, 2-Chloro-9-(b-D-erythrofuranoside)-N^6-(3-iodobenzyl)adenine], the Ki amounted to 811 ± 123 nM at rat brain A1 receptor and 2.89 ± 1 µM at rat brain A2a receptor. Besides, the inhibition at 100 µM in experiment [1] (setting [3]) is 42.2%. Further, in experiment [1], the “Ratio Conc./Ki (A3)” value stood at 360.

`CNC(=O)[C@@H]1C[C@@H](OC(C)=O)[C@H](n2cnc3c(NCc4cccc(I)c4)nc(Cl)nc32)O1` [Compound 37, 9-(2-Acetyl-3-Deoxy-β-D-5-Methyl-Ribofuronamido)-2-Chloro -N^6-(3-Iodobenzyl)adenine]: the figures for the Ki on rat brain A1 receptor (setting [2]) and at rat brain A2a receptor (setting [4]) were 778 ± 44 nM and 15.9 ± 3.7 µM, respectively. In addition, the inhibition at 20 µM in experiment [1] (CHO, 20 μM, 1 μM forskolin, average ± S.E.M. for 2-3 determinations or a single value, read-out: % Inhib. (adenylate cyclase)) was determined as 12.7 ± 1%. Moreover, in experiment [1], the “Ratio Conc./Ki (A3)” value turned out to be 320.

Consider `CNC(=O)[C@@H]1CC[C@H](n2cnc3c(NCc4ccccc4)nc(Cl)nc32)O1` [Compound 40, 2-Chloro-9-(2,3-Dideoxy-β-D-5-Methyl-Ribofuronamido)-N^6 -Benzyladenine], for which the figures for the Ki on rat brain A1 receptor (setting [2]) and at rat brain A2a receptor (setting [4]) were 11500 ± 1300 nM and 220 ± 65 µM, respectively. In experiment [1] (1 μM forskolin), the “Effect on IB-MECA dose-resp. curve” value was “c”. Further, the inhibition at 40 µM in experiment [1] (setting [3]) was determined as 18.1 ± 8.7%. For the same compound, the “Ratio Conc./Ki (A3)” value in experiment [1] came to 1.3.

For `CNC(=O)[C@@H]1C[C@@H](O)[C@H](n2cnc3c(NCc4cccc(I)c4)nc(Cl)nc32)O1` [Compound 41b, 2-Chloro-9-(3-Deoxy-β-D-5-Methyl-Ribofuronamido)-N^6-(3-Iodobenzyl)adenine], the Ki at rat brain A1 receptor (setting [2]) worked out at 1030 ± 150 nM; at rat brain A2a receptor (setting [4]), 4.66 ± 0.74 µM. Also, the inhibition at 100 µM in experiment [1] (setting [3]) was 49.2 ± 3.7%. Also, the “Ratio Conc./Ki (A3)” value in experiment [1] is on record as 3000.

On to `CNC(=O)[C@@H]1C[C@H](N=[N+]=[N-])[C@H](n2cnc3c(NCc4cccc(I)c4)nc(Cl)nc32)O1` [Compound 42, 2-Chloro-9-(2'-Azido-2',3'-Dideoxy-β-D-5'-Methyl-Arabinofuronamido)-N^6 (3-Iodobenzyladenine)], for which the Ki is 401 ± 41 nM at rat brain A1 receptor (setting [2]) and 28.1 ± 3.2 µM on rat brain A2a receptor (setting [4]). The inhibition at 100 µM in experiment [1] (setting [3]) stood at 27.8%. Moreover, in experiment [1], the “Ratio Conc./Ki (A3)” value is given as 17.

For the compound `CNC(=O)[C@@H]1C[C@H](F)[C@H](n2cnc3c(NCc4cccc(I)c4)nc(Cl)nc32)O1` [Compound 44, 2-Chloro-9-(2',3'-Dideoxy-2'-Fluoro-β-D-5'-Methyl-Arabinofuronamido)-N^6-(3-Iodobenzyl)adenine], in experiment [1] (setting [3]), the inhibition at 100 µM turned out to be 11.2%. Besides, the “Ratio Conc./Ki (A3)” value in experiment [1] is given as 5.6.

`CC(C)[Si]1(C(C)C)OC[C@H]2O[C@@H](n3cnc4c(NCc5cccc(I)c5)nc(Cl)nc43)[C@H](O)[C@@H]2O[Si](C(C)C)(C(C)C)O1` [Compound 45, 2-Chloro-9-(3,5-1,1,3,3-Tetraisopropyldisiloxyl-β-D-5-Ribofuranosyl)-N^6-(3-Iodobenzyl)adenine] showed a Ki on rat brain A1 receptor (setting [2]) of 66300 ± 19800 nM. Further, in experiment [1] (setting [3]), the inhibition at 100 µM was 8.7%. Further, in experiment [1], the “Ratio Conc./Ki (A3)” value came to 7.6. Moreover, the “% Inhibition (A2a)” value on rat brain A2a receptor (at 10^-4, [^3 H]CGS 21680, rat brain) was 18 ± 2%.
